# Data taken from PMC11079024, “Identification of a family of species-selective complex I inhibitors as potential anthelmintics” (Nature Communications, 2024).
# Where “and” joins values, the source holds several entries; their conditions need not be identical. Equal entries are not always repeated. Where two headings read alike, the source gives them in different places.
# Tests used:
# adult H. polygyrus = format: cell-based, Heligmosomoides polygyrus; conditions: aerobic; for Percent Worms Affected: affected = score equal to or lower than 1.5; for Worm viability score of individual worm, scale from 0 (dead) to 3 (motile): single worms; for effect on adult H. polygyrus viability: 10 µM, 24-h exposure
# Experimental: After either 24- or 72 h chemical treatment, worm viability was manually scored by an examiner using a scale from 0 (dead) to 3 (motile); DMSO was used as a negative control in both 24- and 72 h treatments. The percentage of affected worms (i.e., worms with a score equal to or lower than 1.5) in each biological replicate is shown; data are from two biological replicates. Within each boxplot, black horizontal lines denote group medians, boxes span from the 25th to the 75th percentile of each group’s distribution, and whiskers extend to the maximum and minimum values.
# The eleven benzimidazole derivatives were tested at a concentration of 10 µM under aerobic conditions against L3 and adult H. polygyrus.
# For the larval assay, mice feces were collected 2 weeks post-infection and eggs were isolated. The eggs were left on agar at room temperature in the dark for eight to 10 days to allow them to develop into L3. Next, 30–40 L3 were incubated (37 °C, 5% CO2) in the culture medium (RPMI 1640 medium + 1% pen./strep. + 5% amphotericin B) containing the derivatives in 96-well plate (Corning, USA) reaching a final volume of 250 µL for 24 h. For the adult drug screening assay, female NMRI mice were euthanized with CO2 and adult H. polygyrus were dissected out of the intestines. Subsequently, three worms were exposed to the culture medium (RPMI 1640 medium + 1% pen./strep. + 5% amphotericin B) with the derivatives (2 mL) in a 24-well plate (Corning, USA) for either 24 or 72 h. DMSO ( < 1%) served as a negative control in both assays. All conditions were tested in duplicates. Finally, 80 µL of hot water ( ~ 80 °C) for L3 and 500 µL of hot water (~80 °C) for adults were added to the wells to check for their viability under a microscope (Carl Zeiss, Germany). Larvae were categorized as being either alive or dead, depending on whether they moved or not. […] The whole experiment was performed two times i.e., two independent biological replicates for both life stages (L3s and adults) and exposure times (24 and 72 h).
# [1] = biological target: C. elegans complex II (succinate dehydrogenase) (Caenorhabditis elegans, UniProt O62215+P41956+Q09545); experiment: In vitro complex II activity assay, C. elegans mitochondria; format: biochemical; conditions: for Percent in vitro activity, Complex II (single replicate Rep1-Rep4): individual biological replicates, 100 µM
# Method in brief: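 Mitochondria isolated from adult C. elegans were diluted to 0.2 mg/mL protein and assayed for complex II by the DCIP-coupled method. A600 was read every 30 s over 15 min, with initial linear slope expressed as percent of solvent control. Screening was at 100 μM (≥3 biological replicates), followed by dose-response.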
# [2] = adult H. polygyrus, replicate 1, 24 hours after treatment
# [3] = adult H. polygyrus, replicate 2, 24 hours after treatment
# [4] = adult H. polygyrus, in vitro, 24 hours, per biological replicate
# [5] = adult H. polygyrus, in vitro, 24 hours
# [6] = adult H. polygyrus, in vitro, 72 hours, per biological replicate
# [7] = replicate 1, 24 hours after treatment, worms with score equal to or lower than 1.5
# [8] = replicate 2, 24 hours after treatment, worms with score equal to or lower than 1.5
# [9] = adult H. polygyrus, in vitro, 72 hours
# [10] = 100 µM compound, relative to solvent control, mean (SEM), read-out: % Activity Complex II
# [11] = 100 μM of NPD compound, C. elegans mitochondria
# [12] = 100 μM of NPD compound, C. elegans mitochondria, mean of four biological replicates, read-out: Percent in vitro activity, Complex II (Mean)
# C. elegans complex II (succinate dehydrogenase), sequence (P41956 30-182): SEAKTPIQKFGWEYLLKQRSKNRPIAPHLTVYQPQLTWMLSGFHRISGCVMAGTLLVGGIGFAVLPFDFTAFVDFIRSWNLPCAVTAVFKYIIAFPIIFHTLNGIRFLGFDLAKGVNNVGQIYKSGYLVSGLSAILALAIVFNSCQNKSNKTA
# C. elegans complex II (succinate dehydrogenase), sequence (Q09545 22-298): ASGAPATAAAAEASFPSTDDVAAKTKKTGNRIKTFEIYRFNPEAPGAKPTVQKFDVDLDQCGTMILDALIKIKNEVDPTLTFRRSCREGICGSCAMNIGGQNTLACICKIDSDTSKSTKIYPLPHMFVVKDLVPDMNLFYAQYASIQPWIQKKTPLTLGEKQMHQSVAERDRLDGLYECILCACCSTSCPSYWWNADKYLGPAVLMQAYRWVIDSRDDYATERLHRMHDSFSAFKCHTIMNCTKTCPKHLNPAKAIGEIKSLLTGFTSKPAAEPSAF
# C. elegans complex II (succinate dehydrogenase), sequence (Q09508 32-646, further chain): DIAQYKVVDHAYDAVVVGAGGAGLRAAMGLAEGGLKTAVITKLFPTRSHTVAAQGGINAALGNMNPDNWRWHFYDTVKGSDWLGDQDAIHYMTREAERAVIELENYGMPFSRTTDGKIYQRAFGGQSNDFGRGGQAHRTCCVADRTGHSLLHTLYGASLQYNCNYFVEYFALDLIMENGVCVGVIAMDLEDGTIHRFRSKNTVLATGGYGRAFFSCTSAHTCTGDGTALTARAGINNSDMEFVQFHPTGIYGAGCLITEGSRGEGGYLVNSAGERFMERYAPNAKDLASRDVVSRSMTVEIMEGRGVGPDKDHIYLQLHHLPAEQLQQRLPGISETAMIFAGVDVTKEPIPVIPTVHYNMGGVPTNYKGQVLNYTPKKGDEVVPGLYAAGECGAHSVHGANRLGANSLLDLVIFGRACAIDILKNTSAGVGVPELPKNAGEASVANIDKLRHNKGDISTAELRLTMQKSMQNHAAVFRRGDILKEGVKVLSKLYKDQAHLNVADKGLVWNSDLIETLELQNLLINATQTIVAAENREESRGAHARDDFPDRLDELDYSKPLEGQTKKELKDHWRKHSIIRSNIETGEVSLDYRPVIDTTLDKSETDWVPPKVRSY
# C. elegans complex II (succinate dehydrogenase), sequence (O62215 31-145): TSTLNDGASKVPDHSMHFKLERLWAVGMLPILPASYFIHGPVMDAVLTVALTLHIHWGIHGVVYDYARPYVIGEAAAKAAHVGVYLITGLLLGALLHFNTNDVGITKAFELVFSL
Compound,Percent Worms Affected (adult H. polygyrus; [2]),Percent Worms Affected (adult H. polygyrus; [3]),Percent Worms Affected (worms with a score equal to or lower than 1.5) (adult H. polygyrus; [4]),"Worm viability score of individual worm, scale from 0 (dead) to 3 (motile) (adult H. polygyrus; [5])",# of Worms Affected (adult H. polygyrus; [6]),Percent Worms Affected (worms with a score equal to or lower than 1.5) (adult H. polygyrus; [6]),# of Worms Affected (adult H. polygyrus; [7]),# of Worms Affected (adult H. polygyrus; [8]),"Worm viability score of individual worm, scale from 0 (dead) to 3 (motile) (adult H. polygyrus; [9])",effect on adult H. polygyrus viability (adult H. polygyrus),"activity at 100 µM [1, 10]","Percent in vitro activity, Complex II (single replicate Rep1-Rep4) [1, 11]","activity at 100 µM [1, 12]",# of Worms Affected (adult H. polygyrus; [4])
CC(C)Cc1ccc(C(C)c2nc3ccccc3n2C(C)C)cc1 (stereo not shown) [STK951903],67%,14%,67% and 14%,1.5 and 2.5 and 2,6,100%,4,1,–,–,–,–,–,–
Brc1ccc(Cn2cnc3ccccc32)cc1 [Compound 5542661],–,–,17% and 0%,2.5 and 2,–,17% and 83%,–,–,1.5,–,–,–,–,–
Cc1nc2ccccc2n1Cc1ccccc1Cl [Compound 6707368],0%,14%,0% and 14%,2.5,–,29% and 100%,0,1,1.5,–,–,–,–,–
CC(C)Cc1ccc(C(C)c2nc3ccccc3n2C)cc1 (stereo not shown) [NPD8790],–,–,–,–,–,–,–,–,–,potent effects,99.7%,81.090% and 92.425% and 103.697% and 121.642%,99.7%,–
Cc1nc2ccccc2n1Cc1ccc(Br)cc1 [Compound 5567167],33%,17%,33% and 17%,2.5 and 2 and 1.5,–,83% and 100%,2,1,1.5,–,–,–,–,–
Clc1ccc(Cn2cnc3ccccc32)c(Cl)c1 [Compound 6750659],33%,17%,33% and 17%,1.5 and 2.5,–,33% and 100%,2,1,1.5,–,–,–,–,–
Cc1ccccc1OCCCCn1cnc2ccccc21 [Compound 7732524],100%,67%,67%,1.25 (4×) and 1,–,83% and 100%,6,4,0.5,potent effects,–,–,–,4 and 6
Clc1ccc(SCCCCn2cnc3ccccc32)cc1 [Compound 7925515],100%,50%,50% and 100%,1.5,–,100%,6,4,–,potent effects,–,–,–,–
CCn1c(C(C)c2ccc(CC(C)C)cc2)nc2ccccc21 (stereo not shown) [STK951902],67%,83%,67% and 83%,2 and 1 and 1.5,–,100% and 67%,4,5,–,potent effects,–,–,–,–
Clc1ccccc1OCCCCn1cnc2ccccc21 [Compound 7925804],–,–,60% and 67%,1.5 and 2,5,100% and 83%,2,4,1.5,potent effects,–,–,–,–
COc1cc2c(cc1OC)C(C(C)c1ccc(CC(C)C)cc1)=NCC2 (stereo not shown) [NPD10504],–,–,–,–,–,–,–,–,–,–,106%,86.801% and 136.285% and 101.347% and 99.840%,106%,–
Cc1nc2ccccc2n1Cc1ccc(Cl)cc1 [STK697993],17%,17%,17%,2.5 and 1.5,–,17% and 100%,1,1,–,–,–,–,–,1
